This assay deals with T1, sterol carrier protein-2 (SCP-2) (Homo sapiens, UniProt P22307).
T1 sequence (P22307 425-547): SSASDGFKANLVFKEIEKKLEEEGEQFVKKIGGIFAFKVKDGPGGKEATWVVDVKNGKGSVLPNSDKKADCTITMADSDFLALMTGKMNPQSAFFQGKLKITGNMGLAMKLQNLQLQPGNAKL
The experiment in a line: fluorescent cis-parinaric acid displacement assay. The assay is classed as binding.

As for `CCCCC/C=C\C/C=C\C/C=C\C/C=C\CCCC(=O)OC(CO)CO` [2-AG, 2-arachidonoylglycerol], affinity was put at a Ki of 200 ± 10 nM.
With `CCCCC/C=C\C/C=C\C/C=C\C/C=C\CCCC(=O)NCCO` [AEA, arachidonoylethanolamide] the figure was 290 ± 10 nM.

As a reminder, the Ki is the equilibrium dissociation constant of an inhibitor or competing ligand from its target. Read a low Ki as tighter binding.

Source of the values: paper PMC4961623 (Journal of neurochemistry, 2016).
